ChEMBL document CHEMBL5096227, “Discovery of Ervogastat (PF-06865571): A Potent and Selective Inhibitor of Diacylglycerol Acyltransferase 2 for the Treatment of Non-alcoholic Steatohepatitis” (J Med Chem, 2022)

How the values were obtained:
physchem = details: buffer, pH 7.4
Description: Lipophilicity, logD of compound at pH 7.4 by shake flask method

[1] = Apparent intrinsic clearance in cryopreserved human hepatocytes measured per million cells at 1 uM incubated for 4 hrs by LC-MS/MS analysis; assay type: ADME, cell-based, Hepatocyte; details: for hepatocyte CLint at 1 µM: cryopreserved human hepatocytes, read-out: CLH
[2] = target: T1, Diacylglycerol O-acyltransferase 2 (Homo sapiens, UniProt Q96PD7); assay: Inhibition of human DGAT2 expressed in Sf9 insect cell membrane using [1-14C]decanoyl-CoA and 1,2-didecanoyl-sn-glycerol as substrates assessed as incorporation of [1-14C]decanoyl into triacylglycerol preincubated for 120 mins followed by substrate addition and measured after 40 mins by scintillation counting method; assay type: cell membranes
T1 sequence (Q96PD7 whole entry): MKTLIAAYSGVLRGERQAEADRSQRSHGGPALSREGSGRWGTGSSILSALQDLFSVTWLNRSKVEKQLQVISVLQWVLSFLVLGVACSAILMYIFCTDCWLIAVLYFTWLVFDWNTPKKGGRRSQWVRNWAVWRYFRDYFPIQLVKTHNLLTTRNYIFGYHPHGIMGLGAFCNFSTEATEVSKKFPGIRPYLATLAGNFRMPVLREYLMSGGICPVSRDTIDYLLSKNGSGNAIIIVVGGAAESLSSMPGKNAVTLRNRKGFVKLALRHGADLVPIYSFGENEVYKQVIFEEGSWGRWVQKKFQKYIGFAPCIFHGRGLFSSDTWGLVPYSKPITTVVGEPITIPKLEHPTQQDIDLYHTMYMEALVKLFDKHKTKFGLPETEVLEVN

[3] = Apparent permeability in MDCK-II cells; assay type: ADME, cell-based, Canis lupus familiaris; details: dog
[4] = Drug metabolism in cryopreserved human hepatocytes assessed as oxidation of primary alcohol to carboxylic acid mediated metabolite formation at 10 uM measured for 240 mins by HPLC-UV-MS analysis; assay type: ADME, cell-based, Hepatocyte; details: 4 h
[5] = Plasma clearance in Wistar Han rat; assay type: ADME
[6] = Drug metabolism in cryopreserved human hepatocytes assessed as O-dearylation mediated oxidative metabolite formation at 10 uM measured for 240 mins by HPLC-UV-MS analysis; assay type: ADME, cell-based, Hepatocyte; details: 4 h
Cytochrome P450 2B6 = target: T2, Cytochrome P450 2B6 (Homo sapiens, UniProt P20813); assay: Reversible inhibition of CYP2B6 in pooled human liver microsomes; assay type: ADME, Microsome
T2 sequence (P20813 whole entry): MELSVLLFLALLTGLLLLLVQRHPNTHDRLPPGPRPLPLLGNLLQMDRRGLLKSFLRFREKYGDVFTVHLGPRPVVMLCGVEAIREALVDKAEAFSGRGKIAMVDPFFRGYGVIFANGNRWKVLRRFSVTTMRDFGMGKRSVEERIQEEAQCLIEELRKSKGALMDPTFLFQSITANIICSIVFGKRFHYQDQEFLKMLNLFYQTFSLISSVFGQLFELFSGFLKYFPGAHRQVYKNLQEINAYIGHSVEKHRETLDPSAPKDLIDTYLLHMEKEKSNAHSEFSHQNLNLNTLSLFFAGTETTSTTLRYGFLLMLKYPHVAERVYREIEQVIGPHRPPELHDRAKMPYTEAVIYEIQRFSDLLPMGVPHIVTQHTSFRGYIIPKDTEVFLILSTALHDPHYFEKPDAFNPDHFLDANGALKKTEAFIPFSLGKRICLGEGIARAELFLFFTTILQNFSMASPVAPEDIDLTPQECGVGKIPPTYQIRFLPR

[7] = Oral bioavailability in Wistar Han rat at 5 mg/kg; assay type: ADME, organism-based; details: in vivo
CYP3A4/5 = CYP3A4/5 (Homo sapiens, UniProt P08684+P20815); assay: Reversible inhibition of CYP3A4/5 in pooled human liver microsomes; assay type: ADME, Microsome
[8] = Drug metabolism in cryopreserved human hepatocytes assessed as O-deethylation mediated pyridin-3-ol metabolite formation at 10 uM measured for 240 mins by HPLC-UV-MS analysis; assay type: ADME, cell-based, Hepatocyte; details: 4 h
[9] = Half life in human; assay type: ADME
[10] = Half life in Wistar Han rat; assay type: ADME; details: in vivo
Cytochrome P450 2C19 = Cytochrome P450 2C19 (Homo sapiens, UniProt P33261); assay: Reversible inhibition of CYP2C19 in pooled human liver microsomes using 4-Hydroxymephenytoin as substrate incubated for 20 mins in presence of NADPH by HPLC-MS/MS analysis; assay type: ADME, Microsome
[11] = Apparent intrinsic clearance in human liver microsomes in presence of NADPH; assay type: ADME, Microsome; details: read-out: CLH
[12] = Dissociation constant, pKa of compound; assay type: physicochemical
[13] = Volume of distribution at steady state in Wistar Han rat; assay type: ADME; details: in vivo, read-out: Vdss
Cytochrome P450 1A2 = target: T3, Cytochrome P450 1A2 (Homo sapiens, UniProt P05177); assay: Reversible inhibition of CYP1A2 in pooled human liver microsomes using […] as substrate incubated for 20 mins in presence of NADPH by HPLC-MS/MS analysis; assay type: ADME, Microsome
T3 sequence (P05177 whole entry): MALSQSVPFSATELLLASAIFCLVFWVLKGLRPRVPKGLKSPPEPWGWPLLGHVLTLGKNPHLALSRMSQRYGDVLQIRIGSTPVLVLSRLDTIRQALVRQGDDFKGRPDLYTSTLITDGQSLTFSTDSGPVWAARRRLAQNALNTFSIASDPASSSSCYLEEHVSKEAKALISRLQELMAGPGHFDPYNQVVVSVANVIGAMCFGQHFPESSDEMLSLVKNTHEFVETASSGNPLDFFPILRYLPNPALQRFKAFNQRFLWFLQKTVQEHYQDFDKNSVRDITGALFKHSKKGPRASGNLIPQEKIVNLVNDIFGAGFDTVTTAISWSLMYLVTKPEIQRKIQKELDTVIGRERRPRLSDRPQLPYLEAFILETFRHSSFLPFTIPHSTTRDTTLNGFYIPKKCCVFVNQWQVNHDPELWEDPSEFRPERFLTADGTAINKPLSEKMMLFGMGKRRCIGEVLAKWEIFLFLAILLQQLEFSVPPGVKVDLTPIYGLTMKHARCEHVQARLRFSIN

Cytochrome P450 2D6 = Cytochrome P450 2D6 (Homo sapiens, UniProt P10635); assay: Reversible inhibition of CYP2D6 in pooled human liver microsomes using dextrorphan as substrate incubated for 14 mins in presence of NADPH by HPLC-MS/MS analysis; assay type: ADME, Microsome
[14] = target: T4, Diacylglycerol O-acyltransferase 1 (Homo sapiens, UniProt O75907); assay: Inhibition of human DGAT1 using [1-14C]decanoyl-CoA and 1,2-didecanoyl-sn-glycerol as substrates assessed as incorporation of [1-14C]decanoyl […] preincubated for 30 mins followed by substrate addition and measured after 30 to 90 mins by scintillation counting method
T4 sequence (O75907 whole entry): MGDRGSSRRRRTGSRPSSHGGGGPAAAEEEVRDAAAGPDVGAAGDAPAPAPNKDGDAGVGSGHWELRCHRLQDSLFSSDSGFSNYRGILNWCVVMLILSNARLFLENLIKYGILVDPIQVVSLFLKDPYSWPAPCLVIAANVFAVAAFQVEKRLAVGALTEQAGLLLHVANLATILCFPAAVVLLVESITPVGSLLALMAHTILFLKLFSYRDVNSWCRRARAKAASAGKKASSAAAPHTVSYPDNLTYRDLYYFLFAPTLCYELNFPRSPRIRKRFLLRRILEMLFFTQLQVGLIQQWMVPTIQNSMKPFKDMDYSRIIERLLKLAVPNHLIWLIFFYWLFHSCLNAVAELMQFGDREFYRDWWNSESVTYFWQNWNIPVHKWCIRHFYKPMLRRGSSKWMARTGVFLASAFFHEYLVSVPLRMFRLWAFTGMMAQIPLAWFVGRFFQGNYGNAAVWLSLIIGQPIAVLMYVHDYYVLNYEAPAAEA

Cytochrome P450 2C9 = Cytochrome P450 2C9 (Homo sapiens, UniProt P11712); assay: Reversible inhibition of CYP2C9 in pooled human liver microsomes using 4-Hydroxydiclofenac as substrate incubated for 10 mins in presence of NADPH by HPLC-MS/MS analysis; assay type: ADME, Microsome
Cytochrome P450 2C8 = target: T5, Cytochrome P450 2C8 (Homo sapiens, UniProt P10632); assay: Reversible inhibition of CYP2C8 in pooled human liver microsomes using desethylamodiaquine as substrate incubated for 10 mins in presence of NADPH by HPLC-MS/MS analysis; assay type: ADME, Microsome
T5 sequence (P10632 whole entry): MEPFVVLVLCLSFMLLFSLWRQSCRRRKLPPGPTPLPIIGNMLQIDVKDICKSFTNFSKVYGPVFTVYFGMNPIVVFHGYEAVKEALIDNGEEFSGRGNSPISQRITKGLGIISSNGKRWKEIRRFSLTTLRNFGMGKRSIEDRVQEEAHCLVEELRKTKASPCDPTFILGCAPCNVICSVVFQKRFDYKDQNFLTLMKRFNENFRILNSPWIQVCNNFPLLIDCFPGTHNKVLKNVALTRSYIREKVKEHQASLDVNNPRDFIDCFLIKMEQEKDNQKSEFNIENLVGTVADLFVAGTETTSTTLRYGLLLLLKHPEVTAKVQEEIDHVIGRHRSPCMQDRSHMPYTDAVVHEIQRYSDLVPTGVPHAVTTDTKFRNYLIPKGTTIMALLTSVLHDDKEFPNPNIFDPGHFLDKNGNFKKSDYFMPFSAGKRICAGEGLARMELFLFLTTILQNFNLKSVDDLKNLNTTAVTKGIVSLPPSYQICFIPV

[15] = Lipophilicity, logD of compound; assay type: physicochemical; details: octanol/water
[16] = Apparent intrinsic clearance in human hepatocytes measured per million cells; assay type: ADME, cell-based, Hepatocyte; details: read-out: CLH
[17] = Apparent permeability of compound; assay type: ADME; details: not told
[18] = Apparent intrinsic clearance in human liver microsomes; assay type: ADME, Microsome; details: read-out: CLH

Cytochrome P450 2D6, sequence (P10635 whole entry): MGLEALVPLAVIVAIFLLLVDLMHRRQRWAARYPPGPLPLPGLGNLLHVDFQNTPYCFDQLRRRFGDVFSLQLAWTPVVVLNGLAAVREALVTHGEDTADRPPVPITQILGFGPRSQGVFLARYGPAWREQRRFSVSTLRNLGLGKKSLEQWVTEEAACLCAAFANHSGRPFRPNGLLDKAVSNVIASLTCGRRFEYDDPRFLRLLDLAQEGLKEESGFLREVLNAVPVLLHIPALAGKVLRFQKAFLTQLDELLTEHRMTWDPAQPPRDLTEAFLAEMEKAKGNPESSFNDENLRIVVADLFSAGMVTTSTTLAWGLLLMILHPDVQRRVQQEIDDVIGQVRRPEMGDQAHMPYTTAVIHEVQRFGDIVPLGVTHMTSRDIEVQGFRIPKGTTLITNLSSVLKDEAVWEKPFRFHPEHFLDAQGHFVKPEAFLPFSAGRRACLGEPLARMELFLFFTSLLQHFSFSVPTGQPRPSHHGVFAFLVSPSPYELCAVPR
Cytochrome P450 2C9, sequence (P11712 whole entry): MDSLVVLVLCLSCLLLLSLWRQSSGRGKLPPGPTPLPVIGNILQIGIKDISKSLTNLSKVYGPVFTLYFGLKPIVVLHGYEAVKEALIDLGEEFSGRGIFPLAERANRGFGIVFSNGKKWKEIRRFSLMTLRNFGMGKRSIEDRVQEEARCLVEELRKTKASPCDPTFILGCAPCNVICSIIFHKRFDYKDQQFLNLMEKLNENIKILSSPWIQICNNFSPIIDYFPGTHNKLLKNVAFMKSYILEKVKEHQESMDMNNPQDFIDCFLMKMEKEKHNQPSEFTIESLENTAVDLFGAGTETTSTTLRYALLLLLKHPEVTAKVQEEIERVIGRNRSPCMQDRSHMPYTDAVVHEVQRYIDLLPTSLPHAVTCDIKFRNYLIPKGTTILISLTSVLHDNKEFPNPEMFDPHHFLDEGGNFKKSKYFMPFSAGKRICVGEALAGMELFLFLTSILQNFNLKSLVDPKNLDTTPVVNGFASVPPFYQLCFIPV
Cytochrome P450 2C19, sequence (P33261 whole entry): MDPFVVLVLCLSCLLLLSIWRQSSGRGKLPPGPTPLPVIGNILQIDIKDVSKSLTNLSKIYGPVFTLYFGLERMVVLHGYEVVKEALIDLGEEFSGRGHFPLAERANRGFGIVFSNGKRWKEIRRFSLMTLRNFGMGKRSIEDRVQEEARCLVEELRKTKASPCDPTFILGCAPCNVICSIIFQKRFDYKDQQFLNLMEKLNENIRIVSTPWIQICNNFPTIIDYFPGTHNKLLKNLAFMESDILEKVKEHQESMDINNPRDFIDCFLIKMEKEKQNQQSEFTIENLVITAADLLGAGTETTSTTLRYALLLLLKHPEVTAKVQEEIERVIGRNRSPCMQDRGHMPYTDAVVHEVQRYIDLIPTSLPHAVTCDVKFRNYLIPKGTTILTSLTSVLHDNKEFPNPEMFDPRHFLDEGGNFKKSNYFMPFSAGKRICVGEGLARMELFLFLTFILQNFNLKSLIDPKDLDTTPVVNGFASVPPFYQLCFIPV

SMILES | logD (physchem) | hepatocyte CLint at 1 µM [1] [µL/min/1e6 cells] | IC50 [2] [nM] | Papp ([3]; MDCK, read-out: Papp) [×10⁻⁶ cm/s] | other results
CCOc1cccnc1Oc1cncc(-c2ncc(C(=O)NC3CCOCC3)cn2)c1 | 2.6 | 7 | 353 | 20 | 
CCNC(=O)c1cnc(-c2cncc(Oc3ncccc3OCC)c2)nc1 |  | 7 | 84.6 | 15 | 
CCOc1cccnc1Oc1cncc(-c2ncc(C(=O)NC(C)(C)CO)cn2)c1 | 2 | 8 | 6.6 | 21 | Drug metabolism [4]: Metabolite_Detected; clearance [5]: 57 mL/min/kg; Drug metabolism [6]: Metabolite_Notdetected; IC50 (Cytochrome P450 2B6): > 24000 nM; bioavailability [7]: 29%; IC50 (CYP3A4/5): > 30000 nM; Drug metabolism [8]: Metabolite_Detected; half-life [9]: > 240 min; half-life [10]: 24 min; IC50 (Cytochrome P450 2C19): > 30000 nM; microsomal CLint [11]: 14 µL/min/mg; pKa [12]: 2.5; Vd [13]: 1.2 L/kg; IC50 (Cytochrome P450 1A2): > 30000 nM; IC50 (Cytochrome P450 2D6): > 30000 nM; IC50 [14]: > 50000 nM; IC50 (Cytochrome P450 2C9): 7800 nM; IC50 (Cytochrome P450 2C8): > 30000 nM
CCOc1ccccc1O[C@@H]1CCCN(c2ncc(C(=O)NCc3cccc(C(=O)O)c3)cn2)C1 |  |  |  |  | logD [15]: 0.7; hepatocyte CLint [16]: < 12 µL/min/1e6 cells; Papp [17]: 2 ×10⁻⁶ cm/s; microsomal CLint [18]: 9 µL/min/mg
CCOc1cccnc1Oc1cncc(-c2ncc(C(=O)NC(C)(C)CS(C)(=O)=O)cn2)c1 | 1.9 | 8 |  | 15 | 
CCOc1cccnc1Oc1cncc(-c2ncc(C(=O)N[C@@H]3CCOC3)cn2)c1 | 1.9 | 5 |  | 14 | 
CCOc1cccnc1O[C@@H]1CCCN(c2ncc(C(=O)NC(C)(C)CO)cn2)C1 | 1.8 |  | 31.8 |  | microsomal CLint [11]: 108 µL/min/mg
CCOc1cccnc1Oc1cncc(-c2ncc(C(=O)NC3CC(=O)N(C)C3)cn2)c1 (racemic) | 1.7 | < 3 | 501 | 1 | 
CCOc1cccnc1Oc1cncc(-c2ncc(C(=O)NC3CCCOC3)cn2)c1 (racemic) | 2.2 | 11 | 11.5 | 23 | 
CCOc1cccnc1Oc1cncc(-c2ncc(C(=O)NC3(CO)CCOC3)cn2)c1 (stereo in doubt; 5) |  |  |  |  | CLH ([1]; hepatocytes, 4 h, 1 µM): < 4 µL/min; Papp ([3]; mdck-ii): 3 10^-6 cm/s

More lines, main results first:

logD (physchem) | hepatocyte CLint at 1 µM [1] [µL/min/1e6 cells] | IC50 [2] [nM] | Papp ([3]; MDCK, read-out: Papp) [×10⁻⁶ cm/s] | SMILES | other results
2.8 |  |  | 19 | CCOc1ccccc1O[C@@H]1CCCN(c2ncc(C(=O)NC(C)(C)CO)cn2)C1 | microsomal CLint [11]: 121 µL/min/mg
1.6 | 5 |  | 5 | CCOc1cccnc1Oc1cncc(-c2ncc(C(=O)NC3CCS(=O)(=O)C3)cn2)c1 (racemic) | 
1.6 | < 3 |  | 4 | CCOc1cccnc1Oc1cncc(-c2ncc(C(=O)NC3(CO)CCOC3)cn2)c1 (stereo in doubt; 4) | 
